Results: patent publication US20260250290A1 (BRISTOL-MYERS SQUIBB COMPANY, priority 2023, published 2026)
Where a name gives a salt, the structure may show the parent alone.

Columns and labels:
SGK1 = molecular target: T1, SGK1 (Homo sapiens, UniProt O00141); test: SGK1 inhibition Assay B (Echo mass spectrometry of phosphorylated peptide product); format: biochemical; settings: 60 min at room temperature
T1 sequence (O00141 1-431): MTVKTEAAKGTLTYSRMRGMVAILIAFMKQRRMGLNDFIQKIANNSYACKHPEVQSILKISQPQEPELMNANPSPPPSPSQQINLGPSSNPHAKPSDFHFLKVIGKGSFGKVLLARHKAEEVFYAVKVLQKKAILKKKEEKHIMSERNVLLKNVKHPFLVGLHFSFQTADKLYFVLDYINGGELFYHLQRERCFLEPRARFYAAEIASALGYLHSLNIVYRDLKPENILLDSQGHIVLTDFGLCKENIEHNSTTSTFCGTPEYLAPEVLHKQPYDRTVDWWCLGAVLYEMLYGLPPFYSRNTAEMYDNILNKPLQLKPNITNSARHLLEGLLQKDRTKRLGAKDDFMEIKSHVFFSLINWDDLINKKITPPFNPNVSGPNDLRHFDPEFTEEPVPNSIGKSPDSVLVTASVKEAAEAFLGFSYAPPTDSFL

full length SGK1 = molecular target: T2, full length SGK1 (Homo sapiens, UniProt O00141); test: SGK1 inhibition Assay A (Caliper LabChip electrophoretic separation of fluorescent peptide substrate and phosphorylated product); format: biochemical; settings: Assay A; 20 μM ATP, 40 min incubation; read-out: SGK1 IC50
T2 construct: 125 μM full length SGK1 (Life Technologies Part #PR7358A); purchased Life Technologies PR7358A
T2 sequence (O00141 1-431): T1 sequence (O00141 1-431)

| IC50 (SGK1) [nM] | IC50 (full length SGK1) [nM] | SMILES |
| --- | --- | --- |
| 0.1 |  | Cc1nc(O[C@@H]2C[C@H]3CC[C@@H](C2)N3C)c(C(=O)N[C@@H]2CCCN(c3cc(-c4csc(C(C)O)c4)n4ncnc(N)c34)C2)s1 (stereo partly drawn) [Example 928, N-((3R)-1-(4-amino-7-(5-(1-hydroxyethyl)thiophen-3-yl)pyrrolo[2,1-f][1,2,4]triazin-5-yl)piperidin-3-yl)-2-methyl-4-(((1R,3s,5S)-8-methyl-8-azabicyclo[3.2.1]octan-3-yl)oxy)thiazole-5-carboxamide, TFA salt] |
| 9.9 |  | Cc1cc(-c2cc(N3CCC[C@@H](NC(=O)c4sc(C)nc4OC4CCC(N5CCC5)CC4)C3)c3c(N)ncnn23)cnn1 (stereo partly drawn) [Example 1047, N—((R)-1-(4-amino-7-(6-methylpyridazin-4-yl)pyrrolo[2,1-f][1,2,4]triazin-5-yl)piperidin-3-yl)-4-((4-(azetidin-1-yl)cyclohexyl)oxy)-2-methylthiazole-5-carboxamide] |
| 3 |  | Cc1nc(O[C@H]2CC[C@@H](NC(C)C)C2)c(C(=O)N[C@@H]2CCCN(c3cc(-c4ccc(C(N)=O)c(F)c4)n4ncnc(N)c34)C2)s1 [Example 940, N—((R)-1-(4-Amino-7-(4-carbamoyl-3-fluorophenyl)pyrrolo[2,1-f][1,2,4]triazin-5-yl)piperidin-3-yl)-4-(((1S,3R)-3-(isopropylamino)cyclopentyl)oxy)-2-methylthiazole-5-carboxamide] |
| 0.1 |  | Cc1nccc(-c2cc(N3CCC[C@@H](NC(=O)c4sc(C)nc4O[C@H]4CC[C@@H](NC(C)C)CC4)C3)c3c(N)ncnn23)n1 [Example 1036, N—((R)-1-(4-amino-7-(2-methylpyrimidin-4-yl)pyrrolo[2,1-f][1,2,4]triazin-5-yl)piperidin-3-yl)-4-(((1S,4S)-4 (isopropylamino)cyclohexyl)oxy)-2-methylthiazole-5-carboxamide] |
| 2 |  | CN1[C@@H]2CC[C@H]1C[C@H](Oc1cc(Cl)sc1C(=O)N[C@@H]1CCCN(c3cc(-c4cnc(-n5cnnn5)c(F)c4)n4ncnc(N)c34)C1)C2 [Example 843, N-((R)-1-(4-amino-7-(5-fluoro-6-(1H-tetrazol-1-yl)pyridin-3-yl)pyrrolo[2,1-f][1,2,4]triazin-5-yl)piperidin-3-yl)-5-chloro-3-(((1R,3s,5S)-8-methyl-8-azabicyclo[3.2.1]octan-3-yl)oxy)thiophene-2-carboxamide] |
| 2 |  | CC(C)N1[C@@H]2CCC[C@H]1C[C@H](Oc1cc(Cl)sc1C(=O)N[C@@H]1CCCN(c3cc(-c4cc(F)c(=O)n(CC(F)F)c4)n4ncnc(N)c34)C1)C2 [Example 968, N—((R)-1-(4-amino-7-(1-(2,2-difluoroethyl)-5-fluoro-6-oxo-1,6-dihydropyridin-3-yl)pyrrolo[2,1-f][1,2,4]triazin-5-yl)piperidin-3-yl)-5-chloro-3-(((1R,3s,5S)-9-isopropyl-9-azabicyclo[3.3.1]nonan-3-yl)oxy)thiophene-2-carboxamide] |
| 5 |  | Cc1nc(OCCCN(C)C)c(C(=O)N[C@@H]2CCCN(c3cc(-c4cnc(-n5cnnn5)c(F)c4)n4ncnc(N)c34)C2)s1 [Example 919, N-[(3R)-1-{4-amino-7-[5-fluoro-6-(1H-1,2,3,4-tetrazol-1-yl)pyridin-3-yl]pyrrolo[2,1-f][1,2,4]triazin-5-yl}piperidin-3-yl]-4-[3-(dimethylamino)propoxy]-2-methyl-1,3-thiazole-5-carboxamide] |
| 52 |  | CCOC1=C(C(=O)N[C@@H]2CCCN(c3cc(C4=CCN(C(C)=O)C4)n4ncnc(N)c34)C2)CN(c2ccc(F)cc2F)C1=O [Example 756] |
|  | 229 | CC(C)N1CCC(c2cc(C(F)F)sc2C(=O)N[C@@H]2CCCN(c3cc(-c4ccc(C#N)nc4)n4ncnc(N)c34)C2)C1 (stereo partly drawn) [Example 403, N-((R)-1-(4-amino-7-(6-cyanopyridin-3-yl)pyrrolo[2,1-f][1,2,4]triazin-5-yl)piperidin-3-yl)-5-(difluoromethyl)-3-(1-isopropylpyrrolidin-3-yl)thiophene-2-carboxamide] |
|  | 162 | CC(=O)N1CC=C(c2cc(N3CCC[C@@H](NC(=O)c4sc(C(F)F)cc4C4CCNCC4)C3)c3c(N)ncnn23)C1 [Example 393E, (R)—N-(1-(7-(1-acetyl-2,5-dihydro-1H-pyrrol-3-yl)-4-aminopyrrolo[2,1-f][1,2,4]triazin-5-yl)piperidin-3-yl)-5-(difluoromethyl)-3-(piperidin-4-yl)thiophene-2-carboxamide] |
|  | 1 | COC(=O)N1CC=C(c2cc(N3CCC[C@@H](NC(=O)c4sc(Cl)cc4OC4CCNC(C)(C)C4)C3)c3c(N)ncnn23)C1 (mixture of isomers) [Example 628, methyl 3-(4-amino-5-((3R)-3-(5-chloro-3-((2,2-dimethylpiperidin-4-yl)oxy)thiophene-2-carboxamido)piperidin-1-yl)pyrrolo[2,1-f][1,2,4]triazin-7-y1)-2,5-dihydro-1H-pyrrole-1-carboxylate] |
|  | 4 | Nc1ncnn2c(-c3ccnc(C(F)F)c3)cc(N3CCC[C@@H](NC(=O)c4sc(Cl)cc4OC4CCNC4)C3)c12 (stereo partly drawn) [Example 586, N-((R)-1-(4-amino-7-(2-(difluoromethyl)pyridin-4-yl)pyrrolo[2,1-f][1,2,4]triazin-5-yl)piperidin-3-yl)-5-chloro-3-(pyrrolidin-3-yloxy)thiophene-2-carboxamide] |

The remaining lines, values behind:

| SMILES | IC50 (SGK1) [nM] | IC50 (full length SGK1) [nM] |
| --- | --- | --- |
| CN1CCN(c2nccc(C(=O)N[C@@H]3CCCN(c4cc(-c5ccc(-n6cnnn6)c(F)c5)n5ncnc(N)c45)C3)n2)CC1 [Example 849, (R)-N-(1-(4-amino-7-(3-fluoro-4-(1H-tetrazol-1-yl)phenyl)pyrrolo[2,1-f][1,2,4]triazin-5-yl)piperidin-3-yl)-2-(4-methylpiperazin-1-yl)pyrimidine-4-carboxamide] | 2 |  |
| COc1cc(-c2cc(N3CCC[C@@H](NC(=O)c4cccc(N5CC6(C5)CN(C(C)C)C6)n4)C3)c3c(N)ncnn23)ccc1-n1cnnn1 [Example 827, (R)-N-(1-(4-amino-7-(3-methoxy-4-(1H-tetrazol-1-yl)phenyl)pyrrolo[2,1-f][1,2,4]triazin-5-y1)piperidin-3-yl)-6-(6-isopropyl-2,6-diazaspiro[3.3]heptan-2-yl)picolinamide] | 7 |  |
| CN(C(=O)c1ccccc1)[C@@H]1CCCN(c2cc(-c3ccc(S(C)(=O)=O)cc3)n3ncnc(N)c23)C1 [Example 123, (R)—N-(1-(4-amino-7-(4-(methylsulfonyl)phenyl)pyrrolo[2,1-f][1,2,4]triazin-5-yl)piperidin-3-yl)-N-methylbenzamide] |  | 606 |
| CC(=O)N1CC=C(c2cc(N3CCC[C@@H](NC(=O)c4sc(C(F)F)cc4OCCN(C)C)C3)c3c(N)ncnn23)C1 [Example 305, (R)-N-(1-(7-(1-acetyl-2,5-dihydro-1H-pyrrol-3-yl)-4-aminopyrrolo[2,1-f][1,2,4]triazin-5-yl)piperidin-3-yl)-5-(difluoromethyl)-3-(2-(dimethylamino)ethoxy)thiophene-2-carboxamide] |  | 15 |
| COC(=O)N1CC=C(c2cc(N3CCC[C@@H](NC(=O)c4sc(Cl)cc4OCCN4CCS(=O)(=O)CC4)C3)c3c(N)ncnn23)C1 [Example 291, Methyl (R)-3-(4-amino-5-(3-(5-chloro-3-(2-(1,1-dioxidothiomorpholino)ethoxy)thiophene-2-carboxamido)piperidin-1-yl)pyrrolo[2,1-f] [1,2,4]triazin-7-yl)-2,5-dihydro-1H-pyrrole-1-carboxylate] |  | 8 |
| CC(=O)N1CC=C(c2cc(N3CCC[C@@H](NC(=O)c4cccc(OCCN(C)C)n4)C3)c3c(N)ncnn23)C1 [Example 702, (R)-N-(1-(7-(1-acetyl-2,5-dihydro-1H-pyrrol-3-yl)-4-aminopyrrolo[2,1-f][1,2,4]triazin-5-yl)piperidin-3-yl)-6-(2-(dimethylamino)ethoxy) picolinamide] |  | 12 |
| Cc1cccc(C(=O)N[C@@H]2CCCN(c3cc(-c4ccc(S(C)(=O)=O)cc4)n4ncnc(N)c34)C2)c1 [Example 23, (R)-N-(1-(4-amino-7-(4-(methylsulfonyl)phenyl)pyrrolo[2,1-f][1,2,4]triazin-5-yl)piperidin-3-yl)-3-methylbenzamide] |  | 11 |
| N#Cc1cccc(-c2ccc(C(=O)N[C@@H]3CCCN(c4cc(-c5ccnc(C(F)F)c5)n5ncnc(N)c45)C3)s2)c1 [Example 544, (R)-N-(1-(4-amino-7-(2-(difluoromethyl)pyridin-4-yl)pyrrolo[2,1-f][1,2,4]triazin-5-yl)piperidin-3-yl)-5-(3-cyanophenyl)thiophene-2-carboxamide] |  | 5 |
| COC(=O)N1CC=C(c2cc(N3CCC[C@@H](NC(=O)c4sc(Cl)cc4OCCN4CCCC4)C3)c3c(N)ncnn23)C1 [Example 292, Methyl (R)-3-(4-amino-5-(3-(5-chloro-3-(2-(pyrrolidin-1-yl)ethoxy)thiophene-2-carboxamido)piperidin-1-yl)pyrrolo[2,1-f] [1,2,4]triazin-7-yl)-2,5-dihydro-1H-pyrrole-1-carboxylate] |  | 10 |
| CC(=O)N1CC=C(c2cc(N3CCC[C@@H](NC(=O)c4cccc(N5CC(S(C)(=O)=O)C5)n4)C3)c3c(N)ncnn23)C1 [Example 764, (R)-N-(1-(7-(1-acetyl-2,5-dihydro-1H-pyrrol-3-yl)-4-aminopyrrolo[2,1-f][1,2,4]triazin-5-yl)piperidin-3-yl)-6-(3-(methylsulfonyl)azetidin-1-yl)picolinamide] |  | 62 |
| CC(=O)N1CC=C(c2cc(N3CCC[C@@H](NC(=O)c4cncc(N5CCN(C)CC5)n4)C3)c3c(N)ncnn23)C1 [Example 736] |  | 48 |
